Laboratory results from US7884136B2, “Modified-release formulations of a bupropion salt” (Biovail Laboratories International S.R.L., priority 2005, dated 2011).

Test: not given
Conditions: Lower Alcohol Fatty Acid Ester Surfactants; as reported by the manufacturer; cited from earlier work
For CCCCCCCCCCCCCC(=O)OC(C)C [Isopropyl myristate], the HLB is given as less than 10. For CCCCCCCC/C=C\CCCCCCCC(=O)OCC [Ethyl oleate], the HLB is given as less than 10. In the case of CCCCC/C=C\C/C=C\CCCCCCCC(=O)OCC [Ethyl linoleate], the HLB is given as less than 10.

Same assay, conditions: Mono- and Diglyceride Surfactants; cited from earlier work
For CCCCC/C=C\C/C=C\CCCCCCCC(=O)OCC(O)CO (stereo not drawn) [Glycerol monolinoleate], the HLB is given as 3-4. In the case of CC(=O)OCC(O)CO (stereo not drawn) [Glyceryl acetate], the HLB is listed as less than 10. In the case of CCCCCCCCCCCCCCCCCC(=O)OCC(O)CO (stereo not drawn) [Glycerol monostearate], the HLB is given as 5-9. For CCCCCCCC(=O)OCC(O)CO (stereo not drawn) [Monocaprylin], the HLB is listed as less than 10. For CCCCCCCCCC(=O)OCC(O)CO (stereo not drawn) [Monocaprin], the HLB is given as less than 10. In the case of Glyceryl monostearate, the HLB is given as 4.4. In the case of CCCCCCCCCCCCCC(=O)OCC(O)CO (stereo not drawn) [Glyceryl monomyristate (C14)], the HLB is given as 3-4. For CCCCCCCC/C=C/CCCCCCCC(=O)OCC(O)CO (stereo not drawn) [Monoelaidin (C18:1)], the HLB is given as less than 10. In the case of CCCCCC[C@@H](O)C/C=C\CCCCCCCC(=O)OCC(O)CO (stereo partly drawn) [Glyceryl ricinoleate], the HLB is given as 6. For CCCCCCCC(=O)OCC(O)CO (stereo not drawn) [Glyceryl caprylate], the HLB is given as 5-6. For CCCCCCCCCCCCCCCC(=O)OCC(O)CO (stereo not drawn) [Glycerol monopalmitate], the HLB is listed as 4.

Same assay, conditions: PEG-Fatty Acid Diester Surfactants; cited from earlier work
In the case of PEG-12 distearate, the HLB is given as 10.7. For PEG-4 dilaurate, the HLB is given as 7. For PEG-6 dilaurate, the HLB is given as 9.8. In the case of PEG-4 distearate, the HLB is listed as 5. For PEG-12 dioleate, the HLB is listed as 10.

Same assay, conditions: PEG-Fatty Acid Monoester Surfactants; cited from earlier work
For PEG 4-100 monostearate, the HLB is listed as greater than 6. In the case of PEG-200 oleate, the HLB is given as greater than 10. In the case of PEG-2 stearate, the HLB is given as 4. In the case of PEG-12 oleate, the HLB is given as 14. In the case of PEG 4-100 monolaurate, the HLB is listed as greater than 9. For PEG-12 ricinoleate, the HLB is listed as greater than 10. In the case of PEG-600 oleate, the HLB is listed as greater than 10. For PEG-5 stearate, the HLB is listed as 9.5. For PEG-7 oleate, the HLB is given as 10.4. For PEG-12 stearate, the HLB is listed as 14. In the case of PEG-100 stearate, the HLB is listed as 19.

Same assay, conditions: Polyglycerized Fatty Acids; cited from earlier work
For Polyglyceryl-6 oleate, the HLB is listed as 9. For Polyglyceryl-3 distearate, the HLB is given as less than 10. In the case of Polyglyceryl-4 oleate, the HLB is given as 5-7. For Polyglyceryl-10 tetraoleate, the HLB is given as 6.2. For Polyglyceryl-2 stearate, the HLB is given as 5-7. For Polyglyceryl-10 septaoleate, the HLB is listed as 3. For Polyglyceryl-6 pentaoleate, the HLB is given as less than 10. For Polyglyceryl-2 isostearate, the HLB is given as 5-7. In the case of Polyglyceryl-4 pentaoleate, the HLB is listed as less than 10. For Polyglyceryl-3 dioleate, the HLB is listed as less than 10. In the case of Polyglyceryl-2 oleate, the HLB is given as 5-7.

Same assay, conditions: Propylene Glycol Fatty Acid Esters; cited from earlier work
In the case of CCCCCCCC(=O)OCC(C)OC(=O)CCCCCCC (stereo not drawn) [Propylene glycol dicaprylate], the HLB is given as greater than 6. In the case of CCCCCCCCCCCC(=O)OCC(C)OC(=O)CCCCCCCCCCC (stereo not drawn) [Propylene glycol dilaurate], the HLB is listed as greater than 6. In the case of CCCCCCCCCCCCCCCCCC(=O)OCC(C)OC(=O)CCCCCCCCCCCCCCCCC (stereo not drawn) [Propylene glycol distearate], the HLB is listed as greater than 6.

Same assay, conditions: Sorbitan Fatty Acid Ester Surfactants; as reported by the manufacturer; cited from earlier work
For Sorbitan monostearate, the HLB is listed as 4.7. In the case of Sorbitan trioleate, the HLB is given as 4.3. In the case of Sorbitan sesquistearate, the HLB is listed as 4.2. In the case of Sorbitan monoisostearate, the HLB is given as 4.7.

Same assay, conditions: Sterol and Sterol Derivative Surfactants; cited from earlier work
In the case of PEG-24 cholesterol ether, the HLB is listed as greater than 10.

Same assay, conditions: Sugar Ester Surfactants; as reported by the manufacturer; cited from earlier work
For Sucrose dipalmitate, the HLB is listed as 7.4. For Sucrose distearate, the HLB is listed as 3.

Same assay, conditions: Transesterification Products of Oils and Alcohols; cited from earlier work
For CCCCCCCC/C=C\CCCCCCCC(=O)OCC(COC(=O)CCCCCCC/C=C\CCCCCCCC)(COC(=O)CCCCCCC/C=C\CCCCCCCC)COC(=O)CCCCCCC/C=C\CCCCCCCC [Pentaerythrityl tetraoleate], the HLB is listed as less than 10. In the case of Pentaerythrityl tetraisostearate, the HLB is listed as less than 10.

Test: Recrystallization screen for bupropion hydrobromide polymorphic forms (PXRD)
Assay type: physicochemical
Conditions: Form I in rotavapor 100° C. 24 h
Procedure: (§1) It is well known that organic molecules can crystallize into solid forms. Moreover the same organic compound may assume different crystalline arrangements in solid form, depending on the conditions under which the crystal product is formed. This phenomenon is commonly known as polymorphism. A study was undertaken to explore the polymorphic forms of bupropion hydrobromide. The crystal forms of the products obtained in this study were determined by powder X-ray diffraction (PXRD). A RIGAKU miniflex instrument (Radiation Cu K∝, generator 30 KV, filter Ni) was used to obtain the PXRD data.
Polymorphic form II was obtained by recrystallization of form 1 from solvents or mixtures of solvents such as acetone-water, methanol, dichloromethane, toluene-methanol and dimethylcarbonate-methanol. Polymorphic form III was obtained by recrystallization of polymorphic form I in methanol. Table 80 provides a list of recrystallization conditions and the polymorphic form obtained under each set of conditions.
For Br.CC(NC(C)(C)C)C(=O)c1cccc(Cl)c1 (stereo not drawn) [Bupropion Hydrobromide 116], the “K.F. (%)” value was 0.45%.

Same assay, conditions: recrystallized product; solvent/cosolvent differ per trial, trial no. in label
In the case of Br.CC(NC(C)(C)C)C(=O)c1cccc(Cl)c1 (stereo not drawn) [Bupropion Hydrobromide 112], the “K.F. (%)” value is reported as 0.18%. In the case of Br.CC(NC(C)(C)C)C(=O)c1cccc(Cl)c1 (stereo not drawn) [Bupropion Hydrobromide 098A], the “K.F. (%)” value is reported as 0.13%. For Br.CC(NC(C)(C)C)C(=O)c1cccc(Cl)c1 (stereo not drawn) [Bupropion Hydrobromide 113], the “K.F. (%)” value was 0.39%. With Br.CC(NC(C)(C)C)C(=O)c1cccc(Cl)c1 (stereo not drawn) [Bupropion Hydrobromide 097] the “K.F. (%)” value was 0.06%. In the case of Br.CC(NC(C)(C)C)C(=O)c1cccc(Cl)c1 (stereo not drawn) [Bupropion Hydrobromide 111], the “K.F. (%)” value is reported as 0.32%. With Br.CC(NC(C)(C)C)C(=O)c1cccc(Cl)c1 (stereo not drawn) [Bupropion Hydrobromide 108] the “K.F. (%)” value was 0.14%. With Br.CC(NC(C)(C)C)C(=O)c1cccc(Cl)c1 (stereo not drawn) [Bupropion Hydrobromide 117] the “K.F. (%)” value was 0.32%. With Br.CC(NC(C)(C)C)C(=O)c1cccc(Cl)c1 (stereo not drawn) [Bupropion Hydrobromide 098B] the “K.F. (%)” value was 0.16%. In the case of Br.CC(NC(C)(C)C)C(=O)c1cccc(Cl)c1 (stereo not drawn) [Bupropion Hydrobromide 099], the “K.F. (%)” value is reported as 0.12%. For Br.CC(NC(C)(C)C)C(=O)c1cccc(Cl)c1 (stereo not drawn) [Bupropion Hydrobromide 122], the “K.F. (%)” value was 1.3%.

Test: Forced degradation stability study of bupropion salts spiked with placebo/excipients, closed vials, 40° C./75% RH, HPLC assay and impurities
Conditions: 10 days, 40° C./75% RH, closed vials, with or without excipients
Procedure: The stability of the salts was evaluated based on the formation of the main degradation products (see below) as determined by HPLC analysis and the % potency (or assay) of the API, after specific time periods in the stability chamber. The effect of the addition of solvents, such as water, ethanol and isopropyl alcohol, was also studied.
The samples of each salt and the spiked salts with the bupropion HCl XL were prepared under the conditions mentioned in Table 4. […] The stability of the bupropion salts were evaluated based on the formation of the main degradation product 3-chlorobenzoic acid (3-CBZ) and the intermediate degradation products diketone 827U76 and the ketohydroxyl derivatives (20U78 and 852U77) (Scheme 2).
As mentioned above, the stability samples were prepared in 2 mL vials and used directly for assay and impurity analysis by HPLC without further sample preparations to minimize errors.
For tartrate, the “Stability in the 10 days forced degradation study” value was “not stable”.

Same assay, conditions: DS and spiked DS, 40° C./75% RH
For tartrate, the “Stability in the forced degradation stability studies, overall” value was “very poor”. For oxalate, the “Stability in the forced degradation stability studies, overall” value was “very poor”.

Same assay, conditions: In IPA/EtOH, 32 days, closed vials
For Bupropion Fumarate, the “Content of impurity 3-CBZ, order of salts” value was “maleate > HBr > HCl > Fumarate”, the “Content of impurity 852U77, order of salts” value was “fumarate > HBr ≈ HCl ≈ maleate ≈ tosylate” and the “Total imp., order of salts” value was “fumarate > maleate > HBr > HCl > tosylate”.

Same assay, conditions: In water, 32 days, closed vials
With Bupropion Fumarate the “Content of impurity 3-CBZ, order of salts” value was “HCl > HBr ≈ maleate ≈ fumarate”, the “Content of impurity 852U77, order of salts” value was “fumarate > HBr > maleate > HCl” and the “Total imp., order of salts” value was “fumarate > HBr > HCl > tosylate > maleate”.

Test: Stability of bupropion HBr polymorphic forms I, II and III by PXRD under ICH conditions
Assay type: physicochemical
Conditions: ICH conditions 40° C., 75% R.H.; listed as form II, hydrobromide
Procedure: as §1, with “A study was undertaken to explore the polymorphic forms of bupropion hydrobromide.” left out
The three polymorphic forms were subjected to stability testing. […] Samples of the polymorphic forms II and III were tested after 1 month under the same accelerated stability conditions.
Samples of bupropion HBr form I were subjected to the conditions for the accelerated stability study as described in Example 10 and the shelf life stability study as described in Example 11.
10 g of bupropion HBr form I were dissolved in a mixture of 170 ml of acetone and 7 ml of water. The mixture was brought to reflux with dissolution of the solid. The solution was then cooled to room temperature. After one night the precipitate formed was filtered and dried at 40° C. under vacuum (30 mmHg) for 12 hours. […] The crystalline form was checked after maintaining the product under these conditions for 1 month.
The mixture was brought to reflux obtaining complete dissolution of the solid. The solution was then cooled to room temperature without stirring and left in these conditions for 18 hours. The resulting crystalline solid was then filtered and dried under vacuum (30 mmHg) at 50° C. for 4 hours. […] The crystalline form was checked after maintaining the product in these conditions for 1 month.
For Br.CC(NC(C)(C)C)C(=O)c1cccc(Cl)c1 (stereo not drawn) [Form II, bupropion hydrobromide], the “Stability of the polymorphic form (words)” value was “quite stable”.

Same assay, conditions: ICH conditions 40° C./75% r.h., 1 month; listed as bupropion HBr form II, hydrobromide
In the case of Br.CC(NC(C)(C)C)C(=O)c1cccc(Cl)c1 (stereo not drawn) [Form II, bupropion hydrobromide], the “PXRD profile / crystalline form after storage (words)” value is reported as “still in form II”.

Same assay, conditions: ICH conditions 40° C./75% r.h., 1 month; listed as form II, hydrobromide
With Br.CC(NC(C)(C)C)C(=O)c1cccc(Cl)c1 (stereo not drawn) [Form II, bupropion hydrobromide] the “PXRD profile / crystalline form after storage (words)” value was “no change in the PXRD profile”.

Test: pH of 0.5% aqueous solution of bupropion salts
Assay type: physicochemical
Conditions: 0.5% aqueous solution, original API salts
Procedure: (§2) The eight salts were first evaluated by HPLC, KF, pH and DSC for purity, water content, aqueous pH and possible polymorphs.
(§3) The salts were analysed by DSC (at 10° C./min from 30° C. up to 400° C.) and the pH (aq. 0.5%), and the moisture content by KF were also measured. The TGA was performed on the HCl, maleate, tosylate and HBr salts.
In the case of CC(NC(C)(C)C)C(=O)c1cccc(Cl)c1.CC(NC(C)(C)C)C(=O)c1cccc(Cl)c1.O=C(O)C(O)C(O)C(=O)O (stereo not drawn) [Bupropion tartrate neutral], the “pH (aq. 0.5%), Original (Initial APIs)” value is reported as 3.62. In the case of Bupropion succinate, the “pH (aq. 0.5%), Original (Initial APIs)” value is reported as 4.82. In the case of CC(NC(C)(C)C)C(=O)c1cccc(Cl)c1.O=C(O)C(O)C(O)C(=O)O (stereo not drawn) [Bupropion tartrate acid], the “pH (aq. 0.5%), Original (Initial APIs)” value is reported as 3.62. For Bupropion Fumarate, the “pH (aq. 0.5%), Original (Initial APIs)” value was 3.84.

Test: Moisture content of bupropion salts by KF
Assay type: physicochemical
Conditions: original API salts
Procedure: as §2, §3
For CC(NC(C)(C)C)C(=O)c1cccc(Cl)c1.CC(NC(C)(C)C)C(=O)c1cccc(Cl)c1.O=C(O)C(O)C(O)C(=O)O (stereo not drawn) [Bupropion tartrate neutral], the “KF (moisture content), Original (Initial APIs)” value (from here on “KF (moisture content), Original”) was 0.14%. For Bupropion succinate, the “KF (moisture content), Original” value was 0.13%. In the case of CC(NC(C)(C)C)C(=O)c1cccc(Cl)c1.O=C(O)C(O)C(O)C(=O)O (stereo not drawn) [Bupropion tartrate acid], the “KF (moisture content), Original” value is reported as 0.18%. For Bupropion Fumarate, the “KF (moisture content), Original” value was 0.09%.
